Reference: US7906510B2, “Amide derivative and pharmaceutical composition containing the same” (Dainippon Sumito Pharma Co., Ltd., priority 2008, dated 2011)
Where a name gives a salt, the structure may show the parent alone.

Key:
[1] = test system: Male Slc-ddy mice; assay: Mouse defecation assay; type: in vivo; set-up: key: −: No Effect; +: Moderately Improved (p<0.05); ++: Significantly Improved (p<0.01); conditions: 3 mg/kg orally; stool weight 30, 60 and 120 minutes after administration; Dunnett assay vs control
Procedure: Male Slc-ddy mice (body weight 25 to 30 g) were used and allowed to ingest food and water ad libitum until commencement of experiments.
A group of 25 mice was divided into 5 groups, which 5 mice each per group were respectively transferred to fasting cages to adjust to new environments for about 1 hour. Then, each mouse was orally administered 3 mg/kg suspension of a test compound in 0.5% tragacanth solution to measure each stool weight of each group 30, 60, and 120 minutes after oral administration.
Efficacies were evaluated by Dunnett assay between test compounds and control.

[2] = test system: Male Slc-Hartley guinea pigs; assay: Electrocardiographic assay for guinea pig; conditions: dose extending 5% of QTc; i.v. infusion for 15 minutes, anesthetized guinea pigs, ECG lead II
Procedure: Male Slc-Hartley guinea pigs were anesthetized to determine electrocardiogram (lead II) under artificial respiration. A drug solution was continuously and intravenously infused via cannula indwelled in cervical veins at a flow rate: 0.2 ml/kg/min for 15 minutes.

[3] = molecular target: T1, 5-HT4 receptor (Cavia porcellus, UniProt O70528); assay: Serotonin 4 (5-HT4) receptor binding assay; set-up: species or system guinea pig; conditions: inhibition of specific binding of 0.1 nM [3H]-GR113808; guinea pig striatum membrane preparations; 37° C., 30 minutes; read-out: IC50
T1 construct: the mixture was suspended to give receptor membrane preparations; from tissue; host or cells: guinea pig (Slc-Hartley) brain striatum membranes
Procedure: 5-HT4 receptor binding assay and preparations of receptor membrane preparations were carried out according to a method of Grossman et al. [see British J. Pharmacol., (1993) 109, 618].
Slc-Hartley guinea pigs (body weight 300 to 400 g) were decapitated to remove brain rapidly, and striatum was isolated. To the obtained tissues were added fifteenfold of Hepes buffer (50 mM, pH7.4, 4° C.), and the mixture was homogenized by Teflon® homogenizer and centrifuged at 48,000×g (4° C.) for 15 minutes. To the resulting precipitate was added Hepes buffer (1 ml) to 30 mg by wet weight of tissues, and the mixture was suspended to give receptor membrane preparations.
0.1 nM [^3H]-GR113808 {chemical name: [1-[2-(methylsulfonylamino)ethyl]-4-piperidinyl]methyl 1-methylindole-3-carboxylate}, receptor membrane preparations, and Hepes buffer (50 mM, pH7.4, 4° C., 1 ml) containing test compounds or 30 μM serotonin were placed in an assay tube, and incubated at 37° C. for 30 minutes. On quenching the reaction, the mixture was rapidly filtered on whatman GF/B filter, which was presoaked in 0.1% polyethyleneimine for 1 hour, by using Brandel cell Harvester, and washed with ice-cooled 50 mM Tris-HCl (pH7.7, 4 ml) three times. To the filter after filtration was added ACS II scintillator, and then a radioactivity was determined by a liquid scintillation counter.
50% inhibition concentrations (IC50) were determined from inhibition rates of test compounds to specific bindings which were obtained by subtracting nonspecific bindings from total binding amounts of [^3H]-GR113808.

T1 sequence (O70528 whole entry): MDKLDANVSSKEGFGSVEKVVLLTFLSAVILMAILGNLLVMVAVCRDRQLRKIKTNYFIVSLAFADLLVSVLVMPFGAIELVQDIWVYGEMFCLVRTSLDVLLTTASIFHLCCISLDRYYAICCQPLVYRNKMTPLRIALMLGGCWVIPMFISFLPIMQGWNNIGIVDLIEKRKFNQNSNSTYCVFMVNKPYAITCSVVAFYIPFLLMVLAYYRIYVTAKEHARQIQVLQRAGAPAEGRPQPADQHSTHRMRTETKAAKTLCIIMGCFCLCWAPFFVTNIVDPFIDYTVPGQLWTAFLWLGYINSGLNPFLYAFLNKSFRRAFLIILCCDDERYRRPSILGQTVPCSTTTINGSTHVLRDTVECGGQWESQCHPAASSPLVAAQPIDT

Row | Structure (SMILES) | melting point | Effect [1] | ED5% (mg/kg,i.v.) [2] [mg/kg] | IC50 [3] [nM]
1 | CCOc1cc(N)c(Cl)cc1C(=O)NCC1CN(CC2CCN(C(=O)OC(C)(C)C)CC2)CCO1 (stereo not drawn) (as salt: fumarate) [Example 4, 4-amino-N-[{4-[(1-(tert-butoxycarbonyl)-4-piperidinyl)methyl]-2-morpholinyl}-methyl]-5-chloro-2-ethoxybenzamide 1.5 fumarate] | 167 to 169 °C |  |  | 
2 | CCOc1cc(N)c(Br)cc1C(=O)NCC1CN(CC2CCN(C(=O)OC(C)(C)C)CC2)CCO1 (stereo not drawn) (as salt: fumarate) [Example 11, 4-amino-5-bromo-N-[{4-[(1-(tert-butoxycarbonyl)-4-piperidinyl)methyl]-2-morpholinyl}methyl]-2-ethoxybenzamide 1.5 fumarate] | 171 to 172 °C |  |  | 
3 | COc1cc(N)c(Cl)cc1C(=O)NC[C@H]1CN(CC2CCN(C(=O)CO)CC2)CCO1 (as salt: hydrobromid) (hydrate or solvate) [Example 220, (S)-4-amino-5-chloro-N-[{4-[(1-hydroxyacetyl-4-piperidinyl)methyl]-2-morpholinyl}methyl]-2-methoxybenzamide hydrobromide 2 hydrate] | 215 to 216 °C (dec.) |  |  | 
4 | COc1cc(N)c(Cl)cc1C(=O)NC[C@H]1CN(CC2CCN(C(=O)CO)CC2)CCO1 (as salt: hydrochloride) [Example 198, 4-amino-5-chloro-N-[{4-[(1-hydroxyacetyl-4-piperidinyl)methyl]-2-morpholinyl}methyl]-2-methoxybenzamide hydrochloride] | 164 to 167 °C (dec.) |  |  | 
5 | COc1cc(N)c(Cl)cc1C(=O)N[C@H]1CCN(CCCOc2ccc(F)cc2)C[C@H]1OC (relative stereo) [Cisapride, cis-4-amino-5-chloro-N-[1-[3-(4-fluorophenoxy)propyl]-3-methoxy-4-piperidinyl]-2-methoxybenzamide, reference compound] |  | − | 0.3 | 
6 | CCOc1cc(N)c(Cl)cc1C(=O)NCC1CN(CC2CCN(C(N)=O)CC2)CCO1 (stereo not drawn) [Example 43, 4-amino-N-[{4-((1-carbamoyl-4-piperidinyl)methyl)-2-morpholinyl}methyl]-5-chloro-2-ethoxybenzamide] | 201 to 207 °C |  |  | 
7 | COc1cc(N)c(Cl)cc1C(=O)NCC1CN(CC2CCN(C(=O)N(C)C)CC2)CCO1 (stereo not drawn) [Example 67, 4-amino-5-chloro-N-[{4-[(1-dimethylcarbamoyl-4-piperidinyl)methyl]-2-morpholinyl}methyl]-2-methoxybenzamide] | 179 to 180 °C |  |  | 
8 | COc1cc(N)c(Cl)cc1C(=O)NC[C@H]1CN(CC2CCN(S(=O)(=O)N(C)C)CC2)CCO1.O=C(O)/C=C/C(=O)O [Example 80] |  | + | >30 | 
9 | COC(=O)N1CCC(CN2CCO[C@@H](CNC(=O)c3cc(Cl)c(N)cc3OC)C2)CC1 [Example 92] |  | + | >30 | 
10 | COc1cc(N)c(Cl)cc1C(=O)NC[C@H]1CN(CC2CCN(S(C)(=O)=O)CC2)CCO1 [Example 94] |  | ++ | >30 | 11.9
11 | C=CCOC(=O)N1CCC(CN2CCO[C@@H](CNC(=O)c3cc(Cl)c(N)cc3OC)C2)CC1 [Example 100] |  | ++ | >30 | 
12 | CCOc1cc(N)c(Cl)cc1C(=O)NC[C@H]1CN(CC2CCN(C(=O)c3ccc(Cl)cc3)CC2)CCO1 [Example 116] |  | + | >30 | 0.68
13 | COc1cc(N)c(Cl)cc1C(=O)NC[C@H]1CN(CC2CCN(C(=O)c3cccc(C)c3)CC2)CCO1 [Example 119] |  | + | >30 | 2.05
14 | CCOc1cc(N)c(Cl)cc1C(=O)NC[C@H]1CN(CC2CCN(C(=O)c3ccc(C)cc3)CC2)CCO1 [Example 121] |  | ++ | >30 | 0.23
15 | CCc1ccc(C(=O)N2CCC(CN3CCO[C@@H](CNC(=O)c4cc(Cl)c(N)cc4OC)C3)CC2)cc1 [Example 122] |  | + | >30 | 0.87
16 | COc1cccc(C(=O)N2CCC(CN3CCO[C@@H](CNC(=O)c4cc(Cl)c(N)cc4OC)C3)CC2)c1 [Example 124] |  | + | >30 | 1.95

Row | Structure (SMILES) | melting point | Effect [1] | ED5% (mg/kg,i.v.) [2] [mg/kg] | IC50 [3] [nM]
17 | COc1ccc(C(=O)N2CCC(CN3CCO[C@@H](CNC(=O)c4cc(Cl)c(N)cc4OC)C3)CC2)cc1 [Example 125] |  | ++ | >30 | 3.51
18 | COCC(=O)N1CCC(CN2CCO[C@@H](CNC(=O)c3cc(Cl)c(N)cc3OC)C2)CC1 [Example 132] |  | ++ | >30 | 
19 | CN(C)C(=O)N1CCC(CN2CCOC(CNC(=O)c3cc(Cl)c(N)c4c3OCC4)C2)CC1 (stereo not drawn) [Example 135, 4-amino-5-chloro-N-[{4-[(1-dimethylcarbamoyl-4-piperidinyl)methyl]-2-morpholinyl}methyl]-2,3-dihydrobenzo[b]furan-7-carboxamide 1.5 fumarate] |  | ++ | >30 | 6.04
20 | COc1cc(N)c(Cl)cc1C(=O)NC[C@H]1CN(CC2CCN(C(=O)c3ccccc3OC(C)=O)CC2)CCO1 [Example 166] |  | ++ | >30 | 6.93
21 | COc1cc(N)c(Cl)cc1C(=O)NC[C@H]1CN(CC2CCN(C(=O)c3ccc(OC(C)=O)cc3)CC2)CCO1 [Example 169] |  | ++ | >30 | 6.09
22 | COc1cc(N)c(Cl)cc1C(=O)NC[C@H]1CN(CC2CCN(C(=O)CO)CC2)CCO1 [Example 198, 4-amino-5-chloro-N-[{4-[(1-hydroxyacetyl-4-piperidinyl)methyl]-2-morpholinyl}methyl]-2-methoxybenzamide hydrochloride] |  | ++ | >30 | 25.9
23 | CCOc1cc(N)c(Cl)cc1C(=O)NC[C@H]1CN(CC2CCN(C(=O)N(C)OC)CC2)CCO1 [Example 205, (S)-4-amino-5-chloro-2-ethoxy-N-[{4-[(1-(N-methoxy-N-methylcarbamoyl)-4-piperidinyl)methyl]-2-morpholinyl}methyl]benzamide] | 127 to 129 °C |  |  | 
24 | COc1cc(N)c(Cl)cc1C(=O)NCC1CN(CC2CCN(C(=O)n3ccnc3)CC2)CCO1 [Example 207, (S)-4-amino-5-chloro-N-[{4-[(1-imidazolecarbonyl-4-piperidinyl)methyl]-2-morpholinyl}methyl]-2-methoxybenzamide] |  | ++ | >30 | 
25 | COc1cc(N)c(Cl)cc1C(=O)NC[C@H]1CN(CC2CCN(C(C)=O)CC2)CCO1 [Example 221] |  | ++ | >30 | 45.2
26 | COc1cc(N)c(Cl)cc1C(=O)NC[C@H]1CN(CC2CCN(C(=O)CNC(=O)c3ccccc3)CC2)CCO1 [Example 222] |  | ++ | >30 | 17.2
27 | COCCC(=O)N1CCC(CN2CCO[C@@H](CNC(=O)c3cc(Cl)c(N)cc3OC)C2)CC1 [Example 224] |  | ++ | >30 | 14.5
28 | COc1cc(N)c(Cl)cc1C(=O)NC[C@H]1CN(CC2CCN(C(=O)[C@H](C)OC)CC2)CCO1 [Example 225] |  | ++ | >30 | 20.2
29 | COc1cc(N)c(Cl)cc1C(=O)NC[C@H]1CN(CC2CCN(C(=O)C3CCOC3)CC2)CCO1 (stereo partly drawn) [Example 226] |  | ++ | >30 | 21.2
30 | COc1cc(N)c(Cl)cc1C(=O)NC[C@H]1CN(CC2CCN(C(=O)c3cocn3)CC2)CCO1 [Example 228] |  | ++ | >30 | 13.1
31 | COc1cc(N)c(Cl)cc1C(=O)NC[C@H]1CN(CC2CCN(C(=O)c3nc[nH]n3)CC2)CCO1 [Example 229] |  | ++ | >30 | 18.1
32 | Nc1c(Cl)cc(C(=O)NC[C@H]2CN(CC3CCN(C(=O)CO)CC3)CCO2)c2c1CCO2 [Example 233, (S)-4-amino-5-chloro-N-[{4-[(1-hydroxyacetyl-4-piperidinyl)methyl]-2-morpholinyl}methyl]-2,3-dihydrobenzo[b]furan-7-carboxamide] |  | ++ |  | 12.1
